We go through 84 compounds from PubChem BioAssay AID1645863 (Buhrlage Lab, Dana-Farber Cancer Institute and Novartis …, 2021).

Calls of active or inactive are those of the source. No rule for the calls is given here.

The target of this test is Ubiquitin carboxyl-terminal hydrolase 10 (Homo sapiens) (UniProt Q14694). Description: ubiquitin-specific protease 10 DUB inhibitors, concentration-effect, biochemical, verification of primary screen actives (AID 1645863).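 Also: potency values describe inhibition of USP10 cleavage of a fluorogenic ubiquitin substrate.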 The settings on record: USP10 deubiquitinase enzymatic assay.
Chain of Ubiquitin carboxyl-terminal hydrolase 10 (Homo sapiens) (Q14694 whole entry, looked up): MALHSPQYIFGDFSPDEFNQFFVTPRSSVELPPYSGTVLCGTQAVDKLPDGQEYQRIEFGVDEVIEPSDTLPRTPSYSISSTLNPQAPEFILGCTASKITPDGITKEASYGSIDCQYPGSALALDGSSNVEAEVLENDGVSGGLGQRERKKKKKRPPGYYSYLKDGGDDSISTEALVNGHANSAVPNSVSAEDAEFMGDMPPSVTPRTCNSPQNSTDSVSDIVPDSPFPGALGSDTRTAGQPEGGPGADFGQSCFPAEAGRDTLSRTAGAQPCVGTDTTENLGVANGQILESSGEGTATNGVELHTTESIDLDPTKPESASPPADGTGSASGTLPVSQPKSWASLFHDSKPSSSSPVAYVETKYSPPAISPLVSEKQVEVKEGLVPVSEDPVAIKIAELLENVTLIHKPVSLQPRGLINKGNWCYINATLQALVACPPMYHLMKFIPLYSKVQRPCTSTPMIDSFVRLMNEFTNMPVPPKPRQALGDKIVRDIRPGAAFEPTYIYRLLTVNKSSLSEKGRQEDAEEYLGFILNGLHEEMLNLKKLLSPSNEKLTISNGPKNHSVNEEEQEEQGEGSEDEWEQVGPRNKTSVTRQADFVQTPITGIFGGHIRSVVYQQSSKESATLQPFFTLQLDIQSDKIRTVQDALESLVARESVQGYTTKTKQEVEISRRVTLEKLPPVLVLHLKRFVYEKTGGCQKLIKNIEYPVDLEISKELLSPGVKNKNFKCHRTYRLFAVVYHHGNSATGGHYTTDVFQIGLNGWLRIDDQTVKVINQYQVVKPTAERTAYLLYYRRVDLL
One may read the IC50 as the point on the concentration scale where inhibition reaches its midpoint. Turning to `Cc1noc(/C=C/Nc2cc(Cl)cc(Cl)c2)c1[N+](=O)[O-]`, the IC50 was > 40 µM (inactive). Regarding `CC(C)=CCOC(C)(C)[C@H]1OC2CC[C@@]3(C)C(CCC4Cc5c([nH]c6ccccc56)[C@@]43C)C23OC3[C@@H]1O` (some centres undefined), the IC50 is 10.6 µM. For `COc1ccc(S(=O)(=O)N2CCc3ccccc32)cc1C(=O)Nc1ccc2[nH]c(=O)[nH]c2c1`, the IC50 is 24.2 µM. The result for `O=C(Cn1c(=O)n(-c2ccc(CC(=O)NC3CCCC3)cc2)c(=O)c2ccccc21)Nc1ccccc1[N+](=O)[O-]` reads 19.9 µM. Consider `O=C(Cn1c(=O)n(-c2ccccc2)c(=O)c2ccc(C(=O)NCc3ccc4c(c3)OCO4)cc21)NCCC1=CCCCC1`, for which the IC50 was 16.2 µM. Consider `O=C(CC1C(=O)Nc2nc(-c3ccccc3)nn21)Nc1cccc2ccccc12` (centres undefined), for which the 50% inhibitory concentration (IC50) was 13.3 µM. Regarding `Cc1c(Cl)cccc1NC(=O)Cn1cc(C(=O)C2CC2)c2ccccc21`, the IC50 was > 40 µM (inactive).

On to `O=C(Cn1c(=O)n(Cc2ccc3c(c2)OCO3)c(=O)c2ccccc21)NCc1ccco1`, for which the half-maximal inhibitory concentration (IC50) was 30.5 µM. In the case of `CC(C)=CCc1c(O)cc2c(c1C)OC(=O)c1c(C)c(Cl)c(O)c(CO)c1O2`, the IC50 is 15.9 µM. The result for `CCOC(=O)c1ccc(NC(=O)Cn2c(=O)n(CC(=O)NCc3ccco3)c(=O)c3ccccc32)cc1` reads 16.2 µM; that for `Cc1cc(Cl)ccc1NC(=O)c1cc(-c2ccncc2)n[nH]1`, > 40 µM (inactive); that for `COc1ccccc1N(CC(=O)N1c2ccccc2CC1C)S(=O)(=O)c1ccc(F)cc1` (centres undefined), > 40 µM (inactive). For `COc1cccc(NC(=O)Cn2c3ccccc3n3c(=O)cc(-c4ccccc4)nc23)c1`, the IC50 is 14.6 µM. As to `CCCCCCCCCCCCCCCc1cc(O)cc(O)c1C(=O)O`, the IC50 was 19.3 µM. As to `O=C(Nc1ccc2c(c1)OCCO2)C1CCC(Cn2cnc3ccccc3c2=O)CC1` (centres undefined), the IC50 was > 40 µM (inactive). The result for `CCn1c(SCC(=O)Nc2ccc(C)c(Cl)c2)nnc1-c1ccc2c(c1)OCCO2` reads > 40 µM (inactive); that for `CC(C)=CCC/C(C)=C/COc1ccc(/C=C2\C(=O)N(O)[C@@H](C)C(=O)N2O)cc1`, 14.5 µM. With `O=C(Cn1nnc2ccccc21)Nc1nc(-c2ccc3c(c2)CCN3C(=O)c2ccccc2F)cs1` the figure was 34.9 µM; with `N#Cc1cccc(NC(=O)COC(=O)c2n[nH]c3ccccc23)c1`, 19.8 µM; with `Cc1cc(CN2CCCCC2c2cc(=O)n3ccnc3[nH]2)no1` (centres undefined), > 40 µM (inactive). For `CCOc1ccc2c(c1)c(=O)c(C(=O)c1ccccc1)cn2CC(=O)Nc1ccccc1`, the IC50 is > 40 µM (inactive).

Consider `Cc1cc(C)cc(NC(=O)Nc2ccccc2OCc2cc(=O)n3c(ncn3C(C)C)n2)c1`, for which the IC50 is 14.3 µM. For `Cc1nn(-c2ccccc2)c2c1N=C1C(Cl)=CC(Cl)=CN1C21C(=O)Nc2ccccc21` (centres undefined), the IC50 was > 40 µM (inactive). For the compound `CCN(Cc1ccccc1)C(=O)Cn1ccc2ccn(C)c2c1=O`, the IC50 was > 40 µM (inactive). With `Cc1ccc2nc(NC(=O)/C=C/c3ccc4c(c3)OCO4)sc2c1` the figure was 15.1 µM; with `COc1ccc(-c2cc3n(c(=N)c2C#N)CCc2cc4c(cc2-3)OCO4)cc1O`, > 40 µM (inactive); with `Cc1ccc(C(=O)c2cn(CC(=O)Nc3ccc(F)c(F)c3)c3ccc(F)cc3c2=O)cc1`, > 40 µM (inactive). Regarding `O[C@H]1[C@H](NCc2cccc(C(F)(F)F)c2)[C@@H](c2cncnc2)C[C@H]1O`, the IC50 is > 40 µM (inactive). The result for `O=C(O)c1ccccc1C(=O)Nc1ccc(SC(C(=O)Nc2cccc(Cl)c2)c2ccccc2)cc1` (centres undefined) reads 14.2 µM; that for `COc1cccc(C(=O)Nc2ccc(SC(C)C(=O)Nc3ccc(C(N)=O)cc3)cc2)c1` (centres undefined), 24.9 µM; that for `N#Cc1cn2c(nc1-c1ccc(Cl)cc1)nc1ccccc12`, 19.5 µM. The result for `O=C(CCn1c(=O)c2sccc2n(Cc2ccc([N+](=O)[O-])cc2)c1=O)NCc1ccccc1` reads > 40 µM (inactive).

As to `O=C(Nc1ccc(C(F)(F)F)cc1)C1CC(=O)N(c2ccc3c(c2)OCCO3)C1` (centres undefined), the IC50 was > 40 µM (inactive). As for `Nc1c(-c2nc(-c3ccccc3Cl)no2)nnn1-c1ccc(Cl)cc1`, the concentration for half-maximal inhibition (IC50) is 11.5 µM.

In the case of `COc1ccccc1Nc1ncc(C(=O)NCc2ccc(F)cc2)c2ccccc12`, the IC50 was > 40 µM (inactive). The result for `CS(=O)(=O)c1cccc(-c2nnc(NC(=O)c3ccc(Cc4ccccc4)cc3)o2)c1` reads > 40 µM (inactive). With `Cc1ccc2[nH]c3c(=O)n(Cc4ccc(N(C)C)cc4)cnc3c2c1`, the IC50 was 19.5 µM. With `COc1ccc(S(=O)(=O)NC2CC(=O)N(c3ccc(Cl)cc3)C2)cc1` (centres undefined) the figure was > 40 µM (inactive); with `CC1CCc2c(sc(NC(=O)c3cccc(S(C)(=O)=O)c3)c2C(N)=O)C1` (centres undefined), > 40 µM (inactive); with `O=C(CC1C(=O)Nc2nc3ccccc3n21)Nc1cccc2ccccc12` (centres undefined), 16.5 µM.

With `Fc1ccccc1-c1nnc(C2(c3ccc4c(c3)OCO4)CCOCC2)o1`, the IC50 was > 40 µM (inactive). With `CCc1ccc(NC(=O)c2cc(C(F)(F)F)n(C)n2)cc1` the figure was > 40 µM (inactive). With `Cc1ccc(C(=O)Nc2ccc3c(c2)Sc2ncccc2C(=O)N3C(C)C)cc1C` the figure was > 40 µM (inactive); with `O=C(COc1nc2ccccc2nc1N1CCOCC1)NC(c1ccccc1)c1ccccc1`, > 40 µM (inactive). On to `CCc1ccc(-n2cc(OC(C)=O)c3c2nc(C)n2c4ccccc4nc32)cc1`, for which the IC50 is > 40 µM (inactive). For `CC(NC(=O)c1ccccc1)c1nc2ccccc2n1CC(=O)Nc1ccc(OC(F)(F)F)cc1` (centres undefined), the IC50 is 37.9 µM. With `CCC(=O)N1c2ccccc2NC2=C(C(=O)CC(c3ccccc3OCc3ccccc3)C2)C1c1ccccc1` (centres undefined), the IC50 is 35.7 µM.

Take `COc1ccc(NC(=O)Cn2cc(C(=O)c3ccc(F)cc3)c(=O)c3cc(C)ccc32)cc1OC`: the IC50 is > 40 µM (inactive). With `O=C(Nc1ccc(-c2cn3ccsc3n2)cc1)c1ccc(Cl)c([N+](=O)[O-])c1` the figure was 19.7 µM; with `CCOc1ccc2cc3c(nc2c1)OC(=O)N(Cc1ccc(OC)cc1)C3`, 5.74 µM. The result for `Cc1cc(=O)n(C)c2c(O)c3c(cc12)c(C)cc(=O)n3C` reads > 40 µM (inactive); that for `Cc1ccccc1-c1nnc2sc(COc3ccc(Cl)cc3)nn12`, > 40 µM (inactive); that for `O=C(CNC(=O)c1ccc2nc(-n3cccc3)sc2c1)NCc1ccccc1`, > 40 µM (inactive). The result for `COC(=O)c1ccccc1NC(=O)C1CCCN(c2nnc(-n3cccc3)s2)C1` (centres undefined) reads > 40 µM (inactive). Consider `COc1cccc(C(=O)Nc2ccc(SC(C(=O)Nc3ccccc3)c3ccccc3)cc2)c1` (centres undefined), for which the IC50 is > 40 µM (inactive). The result for `CC1(C)Cc2c(c(-c3ccco3)nc3sc4c(SCCCc5ccccc5)ncnc4c23)CO1` reads 29.1 µM; that for `Cc1cc(OCC(=O)Nc2ccc3c(c2)NC(=O)CO3)ccc1Cl`, 15.5 µM. For the compound `O=C(COc1ccc(N2CC(C(=O)NCc3ccccc3)CC2=O)cc1)Nc1ccc(F)cc1` (centres undefined), the IC50 was > 40 µM (inactive). With `O=C(c1cc(Cl)c(Cl)[nH]1)c1cc(Cl)cc(Cl)c1O` the figure was 15.2 µM; with `Cc1ccc(NC(=O)c2cc(-c3cccnc3)n[nH]2)cc1F`, > 40 µM (inactive). On to `COc1ccc(-c2ccc3cc(C(=O)O)ccc3c2)cc1C12CC3CC(CC(C3)C1)C2`, for which the IC50 was 5.77 µM. The result for `COc1cc(NC(=O)Cc2ccccc2)ccc1NC(=O)c1cc2ccccc2o1` reads 28.1 µM.

As for `O=C(NCCc1nc2ccccc2n1CCCOc1ccccc1Cl)C1CCCCC1`, the IC50 is 32.8 µM. With `O=C(Cn1cc(C(=O)c2ccccc2)c(=O)c2cc(F)ccc21)Nc1ccc2c(c1)OCCO2` the figure was > 40 µM (inactive); with `Cc1ccc(NC(=O)Cn2c(=O)n(CC(=O)NCCc3ccccc3)c(=O)c3sccc32)cc1C`, 21 µM; with `Cc1c(-c2nn3c(-c4ccco4)nnc3s2)cccc1[N+](=O)[O-]`, > 40 µM (inactive).

On to `CC1Oc2cc3c(-c4c(O)cc(O)c5c(O)c6c(cc45)OC(C)C(C)C6=O)c(O)cc(O)c3c(O)c2C(=O)C1C` (centres undefined), for which the IC50 was > 40 µM (inactive). Consider `Cc1cc(C)c2nc3c(cc2c1)CN(Cc1ccco1)C(=O)O3`, for which the IC50 was > 40 µM (inactive). With `Cc1cc(NS(=O)(=O)c2ccc(NC(=O)c3ccc(N4CCCC4)c([N+](=O)[O-])c3)cc2)no1` the figure was 34.8 µM; with `Cn1c(=O)n(CCc2ccccc2)c(=O)c2c1nc1n2CCN1Cc1ccccc1`, > 40 µM (inactive). With `FC(F)(F)c1ccc(Nc2nnnc3ccccc23)cc1`, the IC50 was 16.6 µM. Consider `Cc1ccc(-c2cc(=O)n(CC(=O)Nc3ccc(C(C)C)cc3)cn2)cc1`, for which the IC50 was > 40 µM (inactive). With `COc1ccc(NS(=O)(=O)c2cc(NC(=O)CC(=O)c3ccc([N+](=O)[O-])cc3)ccc2Cl)cc1` the figure was 12.2 µM; with `CC[C@@H](C(=O)[C@@H](C)[C@@H](O)[C@H](C)CCc1ccc(C)c(O)c1C(=O)O)[C@@H]1O[C@](CC)([C@H]2CC[C@](O)(CC)[C@H](C)O2)C[C@@H]1C`, 12.4 µM.

In the case of `CCOC(=O)C1CCN(Cc2cc(=O)oc3cc(O)c(O)cc23)CC1`, the IC50 is 1.68 µM. With `Cc1ccc(NC(=O)Cc2nnc3cc(-c4nc(C)no4)ccn23)cc1` the figure was 14.3 µM. With `CCC/C=C\C#CC/C=C\CCCCCCCC(=O)O` the figure was 3.3 µM; with `O=C1Cc2ccccc2C(=O)N1Cc1cccc(Cl)c1`, 24.1 µM.

Consider `COc1cc(OC)c(NC(=O)c2cc(-c3ccccn3)n[nH]2)cc1Cl`, for which the IC50 is 28.9 µM. Consider `Cc1ccc(CNC(=O)Cn2c(=O)n(CCCC(=O)NCc3ccc(F)cc3)c(=O)c3ccccc32)cc1`, for which the IC50 is 17.3 µM. The result for `CCc1ccc(-n2c(C)cc(/C=C3\C(=N)N4N=CSC4=NC3=O)c2C)cc1` reads > 40 µM (inactive); that for `COc1ccc(Cl)cc1NC(=O)CSc1ncnc2nc[nH]c12`, 37.9 µM. As for `O=C(C1=CSCCO1)N1CCc2ccccc2C1`, the IC50 is > 40 µM (inactive). With `Cc1cccc(NC(=O)c2noc3c2CCc2sccc2-3)n1` the figure was > 40 µM (inactive).
